Laboratory results as given in the NIST ThermoML archive (doi:10.1021/je400486p).
Numbers after ± are expanded uncertainties.

Legend:
[1] = refractive index (Na D-line) (dimensionless); xn = mol fraction of the nth substance listed; details: 101.3 kPa, Liquid, Standard Abbe refractometry, x1 = 1
[2] = xn = mol fraction of the nth substance listed; details: 101.3 kPa, Liquid, x1 = 1; for viscosity: Concentric cylinders viscometry; for mass density: Vibrating tube method
[3] = 101.3 kPa, Liquid; for viscosity: Concentric cylinders viscometry; for mass density: Vibrating tube method
[4] = refractive index (Na D-line) (dimensionless); details: 101.33 kPa, Liquid, Standard Abbe refractometry

CCC(C)O (stereo not given) [butan-2-ol] + CN1CCCC1=O
Details | mass density, [2] [kg/m3] | refractive index, [1] | viscosity, [2] [mPa·s]
288.15 K | 810.654 ± 0.14 | 1.39959 ± 0.00033 | 4.29 ± 0.051
293.15 K | 806.62 ± 0.14 | 1.39748 ± 0.00033 | 3.576 ± 0.042
298.15 K | 802.502 ± 0.14 | 1.39534 ± 0.00033 | 2.954 ± 0.035
303.15 K | 798.302 ± 0.14 | 1.39314 ± 0.00033 | 2.469 ± 0.03
308.15 K | 794.003 ± 0.14 | 1.39086 ± 0.00033 | 2.08 ± 0.025
313.15 K | 789.609 ± 0.14 | 1.38851 ± 0.00033 | 1.766 ± 0.022
318.15 K | 785.109 ± 0.15 | 1.38617 ± 0.00033 | 1.512 ± 0.019
323.15 K | 780.499 ± 0.15 | 1.38372 ± 0.00033 | 1.303 ± 0.016

CCC(C)O (stereo not given) [butan-2-ol] + COCCOCCOCCOCCOC
Details | mass density, [2] [kg/m3] | refractive index, [1] | viscosity, [2] [mPa·s]
288.15 K | 810.654 ± 0.14 | 1.39959 ± 0.00033 | 4.29 ± 0.047
293.15 K | 806.62 ± 0.14 | 1.39748 ± 0.00033 | 3.576 ± 0.039
298.15 K | 802.502 ± 0.14 | 1.39534 ± 0.00033 | 2.954 ± 0.033
303.15 K | 798.302 ± 0.14 | 1.39314 ± 0.00033 | 2.469 ± 0.028
308.15 K | 794.003 ± 0.14 | 1.39086 ± 0.00033 | 2.08 ± 0.024
313.15 K | 789.609 ± 0.14 | 1.38851 ± 0.00033 | 1.766 ± 0.02
318.15 K | 785.109 ± 0.15 | 1.38617 ± 0.00033 | 1.512 ± 0.017
323.15 K | 780.499 ± 0.15 | 1.38372 ± 0.00033 | 1.303 ± 0.015

CCC(C)O (stereo not given) [butan-2-ol]
Details | mass density, [3] [kg/m3] | refractive index, [4] | viscosity, [3] [mPa·s]
288.15 K | 810.654 ± 0.14 | 1.39959 ± 0.00033 | 4.29 ± 0.047
293.15 K | 806.62 ± 0.14 | 1.39748 ± 0.00033 | 3.576 ± 0.039
298.15 K | 802.502 ± 0.14 | 1.39534 ± 0.00033 | 2.954 ± 0.033
303.15 K | 798.302 ± 0.14 | 1.39314 ± 0.00033 | 2.469 ± 0.028
308.15 K | 794.003 ± 0.14 | 1.39086 ± 0.00033 | 2.08 ± 0.024
313.15 K | 789.609 ± 0.14 | 1.38851 ± 0.00033 | 1.766 ± 0.02
318.15 K | 785.109 ± 0.15 | 1.38617 ± 0.00033 | 1.512 ± 0.017
323.15 K | 780.499 ± 0.15 | 1.38372 ± 0.00033 | 1.303 ± 0.015

CN1CCCC1=O [N-methylpyrrolidone]
Details | mass density, [3] [kg/m3] | refractive index, [4] | viscosity, [3] [mPa·s]
288.15 K | 1037.3 ± 0.26 | 1.47166 ± 0.00037 | 1.99 ± 0.023
293.15 K | 1032.84 ± 0.26 | 1.46952 ± 0.00037 | 1.823 ± 0.021
298.15 K | 1028.38 ± 0.25 | 1.46736 ± 0.00037 | 1.679 ± 0.019
303.15 K | 1023.92 ± 0.25 | 1.4652 ± 0.00037 | 1.555 ± 0.018
308.15 K | 1019.46 ± 0.24 | 1.46306 ± 0.00037 | 1.444 ± 0.017
313.15 K | 1015 ± 0.24 | 1.46095 ± 0.00037 | 1.346 ± 0.016
318.15 K | 1010.53 ± 0.24 | 1.45891 ± 0.00037 | 1.259 ± 0.015
323.15 K | 1006.06 ± 0.23 | 1.4568 ± 0.00037 | 1.182 ± 0.014

COCCOCCOCCOCCOC [2,5,8,11,14-pentaoxapentadecane]
Details | mass density, [3] [kg/m3] | refractive index, [4] | viscosity, [3] [mPa·s]
288.15 K | 1015.63 ± 0.24 | 1.4345 ± 0.00037 | 4.341 ± 0.051
293.15 K | 1011 ± 0.24 | 1.43238 ± 0.00037 | 3.834 ± 0.045
298.15 K | 1006.36 ± 0.23 | 1.43027 ± 0.00037 | 3.38 ± 0.04
303.15 K | 1001.73 ± 0.23 | 1.42815 ± 0.00037 | 3.004 ± 0.036
308.15 K | 997.104 ± 0.23 | 1.42603 ± 0.00037 | 2.691 ± 0.032
313.15 K | 992.481 ± 0.23 | 1.42394 ± 0.00037 | 2.426 ± 0.029
318.15 K | 987.859 ± 0.23 | 1.42183 ± 0.00037 | 2.199 ± 0.026
323.15 K | 983.234 ± 0.23 | 1.41973 ± 0.00037 | 2.006 ± 0.024
